Results: US10328063B2, “Method of wound healing” (CONNEXIOS LIFE SCIENCES PVT. LTD, priority 2015, dated 2019)

Legend:
[1] = system: Human Dermal Fibroblast cells (HDF); test: In vitro scratch assay; assay type: cell-based; details: 400 nM cortisone with 1 μM test molecule, 24 h
Method: Human Dermal Fibroblast cells (HDF) cells were seeded in 24 well plates (25000 cells/mL) in 1 mL of growth media (Media-106, Gibco) and allowed to grow for 24 h at 37° C. and 5% CO2. A small linear scratch was created in the confluent monolayer by gently scraping with sterile p200 pipette tips (care was taken during scratching process to ensure universal size and distant was made for all samples). Cells were extensively rinsed with PBS to remove cellular debris before adding the media with different treatment solutions (400 nM cortisone with or without 1 μM of test molecule according to Formula (I)). After 24 h, images of migrated cells were taken using a digital camera connected to inverted microscope to observe the closure of wound area. Scratch assays were performed in quadruplicate.

[2] = system: excision wound in diet induced obese C57 mice; test: Excision wound model in HFD fed C57 mice (wound contraction, histopathology); assay type: in vivo; details: for Wound contraction profile in C57 mice: HFD, 0.5% cream topical twice a day, Mean ± SEM
Text: (§1) After an acclimatization period, C57 animals on the HFD were weighed and randomly allocated into different groups such as HFD cream base control and HFD+0.5% CNX-010-640 cream. C57 animals on a lean chow diet (Cream base) were also used as a control. Swiss albino mice on a lean chow diet (excision experiments only) were randomized into cream base control and 0.5% CNX-010-640 cream.
(§2) Mice were anaesthetized using ketamine and xylazine, hair was trimmed off and a circular excision of 20 mm^2 size was made on the dorsal neck region. CNX-010-640 cream was applied topically, twice a day. The degree of protection for wound remodeling was assessed by measuring wound contraction and period of epithelialisation. Wound contraction was measured on alternate days by tracing the raw wound area on graph paper carried by butter paper. Scar residue and time for completion of epithelialisation was measured. Results are shown in FIGS. 2 and 3, and Tables 1 to 3. On the termination day animals were euthanized and tissue samples containing wound was collected to study histopathological changes (as shown in FIGS. 6 to 11) and gene expression profiles were determined (FIGS. 12 to 17).
[7] All the values are expressed as Mean±SEM, one way analysis of variance was performed followed by Dunnets' test for establishing the significance value of the treatment groups when compared with the HFD control.

[3] = system: excision wound in Swiss albino mice; test: Excision wound model in Swiss albino mice (wound contraction); assay type: in vivo; details: for Wound contraction profile in SAM: 0.5% cream topical twice a day, Mean ± SEM
Text: as §1, §2

[4] = system: excision wound in db/db mice; test: Excision wound model in db/db mice (wound contraction); assay type: in vivo; details: for Wound contraction profile in db/db mice: 0.5% cream topical twice a day, Mean ± SEM
Method: (§3) db/db Mice (from JAX lab) on chow diet were weighed and randomly allocated into different groups such as db/db cream base control and db/db+0.5% CNX-010-640 cream.
as §2

[5] = system: incision wound in diet induced obese C57 mice; test: Incision wound model in HFD fed C57 mice (tensile strength, collagen content); assay type: in vivo; details: diabetic C57 mice
Text: as §1
(§4) [6] Mice were anaesthetized using ketamine and xylazine, hair was trimmed off and a longitudinal incision of 4 to 5 cm length was made on the back and stitched with thread. CNX-010-640 cream was applied topically, twice a day. The degree of protection for wound remodeling was assessed by measuring tensile strength and collagen content of skin at the healed wound site. Wound tensile strength was measured after 14 days of treatment.

[6] = system: incision wound in db/db mice; test: Incision wound model in db/db mice (tensile strength); assay type: in vivo; details: diabetic db/db mice
Method: as §3, §4

[7] = system: markers of inflammation at the wound area; test: Ex vivo gene expression profile from excision wound model; assay type: in vivo; details: HFD C57BL/6 mice, after one week of compound treatment, skin near wound
Text: [13] […] The db/db control group wounds were not healed within this time. Furthermore, the size of wound of these control groups at the end of the experiment period (day 12) was achieved by the CNX-010-640 treated mice after only 8 days of treatment. […] [16] […] [17] Additionally, the degree of polymorphonuclear cell infiltration (indicative of inflammatory phase) was greater in the G2 group compared to the G3 group (compare FIGS. 6 and 7). From these microscopic observations it can be concluded that the treatment with 0.5% CNX-010-640 hastened the healing process, as it facilitated an early advancement into the proliferative phase in animals treated with CNX-010-640 (G3 group) of this study. Thus CNX-010-640 cream, when applied topically b.i.d, in excision and incision wound healing model on HFD background animals and normal SAM mice, enhanced the healing process in comparison with normal healing and VersaPro control. […] Gene expression was measured using SYBR Green PCR Master Mix (Eurogenetic, Belgium) and relative levels of expression were quantified (see FIGS. 12 to 17). From this, it is apparent that compound treatment has reduced the markers of inflammation at the wound area, as measured by gene expression. […]

[8] = HFD C57 mice, 0.5% cream, excision wound
[9] = diabetes-induced C57 mice, excision

CC(CC(=O)N1C2CC3CC1CC(O)(C3)C2)c1c[nH]c2ccc(Cl)c(Cl)c12 (stereo not drawn) [CNX-010-640, 3-(4,5-Dichloro-1H-indol-3-yl)-1-(5-hydroxy-2-azatricyclo[3.3.1.1^3,7]dec-2-yl)butan-1-one]
closure of wound area (wound healing properties, image analysis) [1]: good wound healing properties
Wound contraction profile in C57 mice ([2]; Day 0): 25.10 ± 1.40 mm^2
Wound contraction profile in C57 mice ([2]; Day 2): 15.80 ± 1.77 mm^2
Wound contraction profile in C57 mice ([2]; Day 4): 17.90 ± 1.92 mm^2
Wound contraction profile in C57 mice ([2]; Day 6): 9.40 ± 1.42 mm^2
Wound contraction profile in C57 mice ([2]; Day 8): 5.60 ± 1.47 mm^2
Wound contraction profile in C57 mice ([2]; Day 10): 4.00 ± 1.41 mm^2
Wound contraction profile in C57 mice ([2]; Day 12): 0.25 ± 0.25 mm^2
degree of collagen deposition (histopathology) in comparison with HFD+VersaPro control [2, 8]: higher degree
degree of fibroblast proliferation (histopathology) in comparison with HFD+VersaPro control [2, 8]: higher degree
days of treatment to reach the wound size of the control group at day 12 [2, 9]: 6 days
time to complete healing of the wound [2, 9]: 12 days
degree of polymorphonuclear cell infiltration (histopathology) ([2]; diabetes-induced mouse, VersaPro cream with 0.5% compound, excision wound): mild
Wound contraction profile in SAM ([3]; Day 0): 22.77 ± 1.38 mm^2
Wound contraction profile in SAM ([3]; Day 2): 15.00 ± 2.18 mm^2
Wound contraction profile in SAM ([3]; Day 4): 14.33 ± 2.62 mm^2
Wound contraction profile in SAM ([3]; Day 6): 10.44 ± 2.80 mm^2
Wound contraction profile in SAM ([3]; Day 8): 3.20 ± 1.46 mm^2
Wound contraction profile in SAM ([3]; Day 10): 1.00 ± 0.54 mm^2
Wound contraction profile in SAM ([3]; Day 12): 0.600 ± 0.600 mm^2
days of treatment to reach the wound size of the control group at day 12 ([3]; Swiss albino mice, excision): 6 days
time to complete healing of the wound ([3]; non-diabetic Swiss albino mice, excision): 12 days
Wound contraction profile in db/db mice ([4]; Day 0): 17.10 ± 0.69 mm^2
Wound contraction profile in db/db mice ([4]; Day 2): 23.80 ± 0.87 mm^2
Wound contraction profile in db/db mice ([4]; Day 4): 14.40 ± 0.91 mm^2
Wound contraction profile in db/db mice ([4]; Day 6): 11.40 ± 0.48 mm^2
Wound contraction profile in db/db mice ([4]; Day 8): 8.20 ± 0.42 mm^2
Wound contraction profile in db/db mice ([4]; Day 10): 5.00 ± 0.47 mm^2
Wound contraction profile in db/db mice ([4]; Day 12): 2.20 ± 0.42 mm^2
Wound contraction profile in db/db mice ([4]; Day 16): 0.30 ± 0.21 mm^2
days of treatment to reach the wound size of the control group at day 12 ([4]; db/db mice, excision): 8 days
time to complete healing of the wound ([4]; diabetic db/db mice, excision): 16 days
improvement of tensile strength of skin at the incision site compared with control formulation ([5]; after 14 days of treatment): up to 38%
collagen content, as estimated by measurement of hydroxyproline, compared with controls ([5]; incision): greater
improvement of tensile strength of skin at the incision site compared with control formulation [6]: up to 18%
markers of inflammation at the wound area, as measured by gene expression [7]: reduced
